Reference: paper PMC10300829 (2023)

Tests used:
[1] = tested on: C9-24mer (DNA, G4) GGGGCCGGGGCCGGGGCCGGGGCC; assay: CD titration at 265 nm, Hill fit; details: K+ 5 mM; 30 mM Tris-HCl pH 7.4; co-annealed; 2 µM DNA; per GQ unit; ligand induces parallel GQ; apparent
[2] = tested on: FRET I + II (DNA, G4) GGGGCCGGGGCCGGGGCCGGGGCCAGAGGTAAAAGGATAATGGCCACGGTGCGGACGGC/GCCGTCCGCACCGTGGCCATTATCCTTTTACCTCT; assay: FRET (Cy3/Cy5) and CD; details: K+ 100 mM; 30 mM Tris-HCl pH 7.4; 2 µM DNA, 8-24 µM compound; FRET efficiency falls to 0.46
[3] = tested on: C9-24mer G + C (C9-24mer with C9-24mer-C) (DNA, other) GGGGCCGGGGCCGGGGCCGGGGCC/GGCCCCGGCCCCGGCCCCGGCCCC; assay: CD and native PAGE; details: K+ 5 mM; 30 mM Tris-HCl pH 7.4; co-annealed; PAGE with 8 µM Fangchinoline; parallel GQ induced
[4] = tested on: C9-RNA (RNA, G4) GGGGCCGGGGCCGGGGCCGGGGCC; assay: CD melting; details: K+ 5 mM; 30 mM Tris-HCl pH 7.4; 5 µM RNA, 2 equivalents (10 µM); Tm 76 to 93 °C
[5] = tested on: C9-24mer (DNA, G4) GGGGCCGGGGCCGGGGCCGGGGCC; assay: CD melting; details: K+ 5 mM; 30 mM Tris-HCl pH 7.4; 2 µM DNA, 8 µM compound (4 equivalents)
[6] = tested on: C9-48mer (DNA, G4) GGGGCCGGGGCCGGGGCCGGGGCCGGGGCCGGGGCCGGGGCCGGGGCC; assay: CD melting at 265 nm; details: K+ 5 mM; 30 mM Tris-HCl pH 7.4; 1 µM DNA; Tm 90 °C at 1 equivalent, undetectable above 4 equivalents
[7] = tested on: Dup I + II (DNA, duplex) GGGCATAGTGCGTGGCGTTTAGC/GCTAAACGCCACGCACTATGCCC; assay: CD and native PAGE; details: K+ 5 mM; 30 mM Tris-HCl pH 7.4; co-annealed; PAGE with 8 µM Fangchinoline, 2 µM each strand
[8] = tested on: C9-48mer (DNA, G4) GGGGCCGGGGCCGGGGCCGGGGCCGGGGCCGGGGCCGGGGCCGGGGCC; assay: CD titration at 265 nm, Hill fit; details: K+ 5 mM; 30 mM Tris-HCl pH 7.4; co-annealed; 1 µM DNA; per GQ unit; ligand induces parallel GQ; apparent

- Kb [1]: (4.0 ± 0.3) × 10^5 M^-1
- binding [2]: yes
- binding [3]: yes
- ΔTm [4]: 17 °C
- ΔTm [5]: 6 °C
- binding [6]: yes
- binding [7]: no
- Kb [8]: (6.6 ± 0.2) × 10^5 M^-1
SMILES: COc1ccc2cc1Oc1ccc(cc1)C[C@H]1c3cc(c(OC)cc3CCN1C)Oc1c(O)c(OC)cc3c1[C@H](C2)N(C)CC3
